In patent US20190380957A1, “Protein Hydrogels For Treatment Of Neovascular Disease” (New Jersey Institute of Technology, priority 2018, published 2019):

Legend:
[1] = system: human umbilical vein endothelial cells (HUVECs); experiment: Tube formation assay; format: cell-based; conditions: positive control, 1.8 mM suramin in media
Description: To assay the anti-angiogenic effect of the self-assembled peptide on endothelial cells, tube formation assays were performed for a range of peptide concentrations. This assay captures the propensity of human ECs or HUVECs to form capillary-like tubules. The process is sensitive to the presence of anti-angiogenic compounds. HUVECs were seeded along with varying concentrations of SL-Kr5 solution on a basement membrane extract matrix to stimulate the formation of capillary tubules. The effects of the peptide on the HUVECs were characterized by measuring the extent of tube formation in terms of total length of tubules formed, number of segments, number of branches, number of junctions, number of nodes, and […] (FIGS. 8A-8F, FIGS. 9A-9D). […]
Tube Formation Assay: HUVECs (Lonza) were cultured in T75 flasks using an Endothelial Cell Growth Medium BulletKit (Lonza). […] The negative control was supplemented with 298 mM sucrose to match the corresponding highest quantity added to the test conditions, and the positive control contained 1.8 mM suramin. The 96-well plate was then incubated at 37° C. for 4 to 6 hours before imaging on a Nikon Instruments Eclipse Ti-S inverted fluorescence microscope. Tube length was quantified using NIH ImageJ software.

[2] = In vitro cytocompatibility (LIVE/DEAD viability/cytotoxicity kit); format: cell-based; conditions: mouse, NIH 3T3 fibroblasts; 800 μM SL-Kr5 in media, day 3; control 85-90%, p<0.05; read-out: viability of cells
Description: (§1) Cytocompatibility was determined by fibroblast cultures treated with increasing concentrations of the peptide in culture media.
(§2) In Vitro Cytocompatibility: NIH 3T3 fibroblasts were cultured in media (Dulbecco's Modified Eagle Medium supplemented with 10% fetal bovine serum and 1% 100× penicillin streptomycin) in T75 flasks. After the cells reached confluency, they were seeded in a 96-well plate at 2,500 cells/well. Three target conditions (800 μM, 80 μM, and […]; n=6) and a control (media with sucrose; n=6) were tested. For target conditions, the peptide was supplemented in the media, and for the media control, 298 mM sucrose (formulation carrier) was added. Media was changed daily and cytocompatibility was assessed on day 3 using a LIVE/DEAD® viability/cytotoxicity kit. Images were taken on a Nikon Instruments Eclipse Ti-S inverted fluorescence microscope, and cell viability was quantified using NIH ImageJ, a known image analysis and processing software program.

[3] = system: NIH 3T3 fibroblasts; experiment: as above; format: cell-based; conditions: for cytocompatibility compared to the media+sucrose control: day 3
Description: as §1, §2

[4] = system: Female Wistar rats; experiment: In vivo subcutaneous implantation, histology; set-up: species or system rat; conditions: 200 μL SC implant
[5] = cited from earlier work
[6] = biological target: GRP78 (glucose-regulated protein 78) (Homo sapiens, UniProt P11021); conditions: previously shown; cited from earlier work
GRP78 (glucose-regulated protein 78), sequence (P11021 19-654, species assumed): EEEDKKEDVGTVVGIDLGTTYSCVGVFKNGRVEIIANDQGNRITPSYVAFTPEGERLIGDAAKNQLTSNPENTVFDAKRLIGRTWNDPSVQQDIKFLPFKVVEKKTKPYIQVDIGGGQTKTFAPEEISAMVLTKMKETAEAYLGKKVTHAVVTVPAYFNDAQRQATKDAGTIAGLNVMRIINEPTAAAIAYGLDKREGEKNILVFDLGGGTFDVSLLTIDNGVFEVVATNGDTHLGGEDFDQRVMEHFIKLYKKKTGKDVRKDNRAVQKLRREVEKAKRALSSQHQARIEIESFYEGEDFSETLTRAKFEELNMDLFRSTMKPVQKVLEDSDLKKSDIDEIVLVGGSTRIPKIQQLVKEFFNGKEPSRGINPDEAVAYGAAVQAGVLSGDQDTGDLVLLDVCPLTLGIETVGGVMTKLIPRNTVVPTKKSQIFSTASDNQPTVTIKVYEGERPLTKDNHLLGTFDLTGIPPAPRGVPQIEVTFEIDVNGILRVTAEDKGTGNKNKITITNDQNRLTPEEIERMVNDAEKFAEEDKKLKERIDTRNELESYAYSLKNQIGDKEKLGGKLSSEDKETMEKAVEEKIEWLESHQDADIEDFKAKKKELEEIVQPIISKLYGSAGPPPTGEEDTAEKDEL

[7] = system: endothelial cells; conditions: previously shown; cited from earlier work

Cc1ccc(C(=O)Nc2ccc(S(=O)(=O)O)c3cc(S(=O)(=O)O)cc(S(=O)(=O)O)c23)cc1NC(=O)c1cccc(NC(=O)Nc2cccc(C(=O)Nc3cc(C(=O)Nc4ccc(S(=O)(=O)O)c5cc(S(=O)(=O)O)cc(S(=O)(=O)O)c45)ccc3C)c2)c1 [suramin]
EC tube formation [1]: inhibited

Ac-KSLSLSLSLSLSLKGPRKLYDY-NH2 [SL-Kr5, K-(SL)6-K-G-PRKLYDY]
viability at 72 h, 800 µM [2]: 55% | cytocompatibility compared to the media+sucrose control ([3]; 8 μM SL-Kr5 in media): little to no difference | cytocompatibility compared to the media+sucrose control ([3]; 80 μM SL-Kr5 in media): little to no difference | non-specific toxicity in stromal cells ([3]; fibroblast cultures, increasing peptide concentrations): did not induce non-specific toxicity | cellular proliferation versus controls ([3]; over a range of concentrations): comparable cellular proliferation to controls | fibrous capsule [4]: no fibrous capsule apparent

K2(SL)6K2
basal level of angiogenesis ([5]; no VEGF mimic): strong basal level of angiogenesis | in vivo biodegradation time ([5]; slow biodegradation): 6 weeks

PRKLYDY (Kr5)
attachment to GRP78 [6]: can attach | apoptosis of endothelial cells [7]: induce apoptosis
